Results on 21 compounds are retold here after US8232406B2, “c-MET protein kinase inhibitors” (Vertex Pharmaceuticals Incorporated, priority 2006, dated 2012).

By Ki is commonly meant a dissociation constant, usually derived from enzyme kinetics or from competition with a known ligand.

c-MET, sequence (P08581 25-1390): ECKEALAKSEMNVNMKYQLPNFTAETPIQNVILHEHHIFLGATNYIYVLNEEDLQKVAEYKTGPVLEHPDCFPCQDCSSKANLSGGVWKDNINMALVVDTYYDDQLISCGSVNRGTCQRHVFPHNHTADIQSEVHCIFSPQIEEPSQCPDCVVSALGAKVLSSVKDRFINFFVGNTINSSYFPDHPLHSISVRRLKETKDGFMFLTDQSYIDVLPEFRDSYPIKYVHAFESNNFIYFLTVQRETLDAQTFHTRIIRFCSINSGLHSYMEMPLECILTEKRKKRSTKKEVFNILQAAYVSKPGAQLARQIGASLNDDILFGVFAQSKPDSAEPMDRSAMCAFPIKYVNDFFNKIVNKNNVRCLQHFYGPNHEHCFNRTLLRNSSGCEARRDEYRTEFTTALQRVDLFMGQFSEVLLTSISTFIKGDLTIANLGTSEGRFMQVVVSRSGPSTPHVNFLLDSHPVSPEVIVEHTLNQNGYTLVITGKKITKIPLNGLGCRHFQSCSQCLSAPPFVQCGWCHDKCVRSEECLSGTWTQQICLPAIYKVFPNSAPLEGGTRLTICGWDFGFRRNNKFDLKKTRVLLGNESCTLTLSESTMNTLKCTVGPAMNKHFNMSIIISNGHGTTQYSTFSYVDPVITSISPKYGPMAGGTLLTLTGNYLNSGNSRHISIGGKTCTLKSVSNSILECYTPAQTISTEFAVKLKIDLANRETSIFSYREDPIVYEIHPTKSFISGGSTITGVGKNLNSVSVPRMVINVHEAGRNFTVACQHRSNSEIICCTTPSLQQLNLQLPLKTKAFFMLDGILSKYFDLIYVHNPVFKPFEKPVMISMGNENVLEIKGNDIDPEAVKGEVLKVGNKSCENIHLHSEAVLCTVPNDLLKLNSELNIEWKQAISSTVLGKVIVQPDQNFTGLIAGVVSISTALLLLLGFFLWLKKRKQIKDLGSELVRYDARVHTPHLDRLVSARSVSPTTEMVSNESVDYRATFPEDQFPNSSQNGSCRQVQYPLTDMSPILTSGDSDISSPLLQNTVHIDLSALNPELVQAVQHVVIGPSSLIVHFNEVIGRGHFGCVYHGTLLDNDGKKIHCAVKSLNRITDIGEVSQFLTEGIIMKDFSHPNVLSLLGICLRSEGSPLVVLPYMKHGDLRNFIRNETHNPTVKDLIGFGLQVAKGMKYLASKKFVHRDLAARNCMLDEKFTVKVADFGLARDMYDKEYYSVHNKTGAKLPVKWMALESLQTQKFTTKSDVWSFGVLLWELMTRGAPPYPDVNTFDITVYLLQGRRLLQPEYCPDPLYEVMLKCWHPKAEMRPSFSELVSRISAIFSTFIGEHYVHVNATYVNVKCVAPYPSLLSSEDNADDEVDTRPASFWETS

This assay deals with c-MET (Homo sapiens, UniProt P08581). Put plainly: Ki determination for the inhibition of c-MET (standard radiometric 33P-ATP kinase assay, polyE4Y substrate). As to conditions: 1.0 nM c-Met, 35 μM ATP, 0.5 mg/mL polyE4Y, 20 min; competitive tight-binding fit. It counts as biochemical. The method in brief:
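Radiometric assay of 33P transfer from 33P-ATP (35 μM) to polyE4Y (0.5 mg/mL) by 1.0 nM c-Met in 100 mM HEPES pH 7.5, 10 mM MgCl2, 25 mM NaCl, 0.01% BSA, 1 mM DTT. TCA-quenched after 20 min, filter-captured, scintillation-counted; Ki fitted to a competitive tight-binding model.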
`Nc1ncc(-c2cnn(C3CCNCC3)c2)cc1-c1nc2cccnc2n1-c1cccc(F)c1F` [I-D-7] registered a Ki of at most 100 nM.

`Nc1ncc(-c2cnn(CCO)c2)cc1-c1nc2cnccc2n1-c1cccc(F)c1F` [I-D-8] came in with a Ki of at most 100 nM.

As to `CN(C)CCn1cc(-c2cnc(N)c(-c3nc4cnccc4n3-c3cccc(F)c3F)c2)cn1` [I-D-9], the Ki was at most 100 nM.

As to `Nc1ncc(-c2cnn(CC(O)CO)c2)cc1-c1nc2cnccc2n1-c1cccc(F)c1F` [I-D-10], the Ki is at most 100 nM.

`Nc1ncc(-c2cnn(CCN3CCCC3)c2)cc1-c1nc2cnccc2n1-c1cccc(F)c1F` [I-D-11] showed a Ki of at most 100 nM.

The compound `CC(=O)Nc1cccc(-c2cnc(N)c(-c3nc4cnccc4n3-c3cccc(F)c3F)c2)c1` [I-D-12] gave a Ki of at most 100 nM.

Compound `CC(=O)Nc1ccc(-c2cnc(N)c(-c3nc4cnccc4n3-c3cccc(F)c3F)c2)cc1` [I-D-13] yielded a Ki of at most 100 nM.

With `Nc1ncc(-c2ccc(CN3CCCC3)cc2)cc1-c1nc2cccnc2n1-c1cccc(Cl)c1F` [I-D-14], the Ki was 100 to 1000 nM.

Turning to `Nc1ncc(-c2cnn(C3CCNCC3)c2)cc1-c1nc2cccnc2n1-c1cccc(Cl)c1F` [I-D-15], the inhibition constant (Ki) was 100 to 1000 nM.

In the case of `Nc1ncc(-c2ccc(N3CCNCC3)cc2)cc1-c1nc2cccnc2n1-c1cccc(Cl)c1F` [I-D-16], the Ki lay in the range of 100 to 1000 nM.

For `CN1CCN(c2ccc(-c3cnc(N)c(-c4nc5cccnc5n4-c4cccc(Cl)c4F)c3)cc2)CC1` [I-D-17], the Ki is 100 to 1000 nM.

Consider `Nc1ncc(-c2cnn(C3CCNCC3)c2)cc1-c1nc2cc(F)ccc2n1-c1cccc(Cl)c1F` [I-D-19], for which the Ki is at most 100 nM.

As for `Nc1ncc(-c2ccc(N3CCNCC3)cc2)cc1-c1nc2cc(F)ccc2n1-c1cccc(Cl)c1F` [I-D-20], the Ki was in the range of 100 to 1000 nM.

As for `CN1CCN(c2ccc(-c3cnc(N)c(-c4nc5cc(F)ccc5n4-c4cccc(Cl)c4F)c3)cc2)CC1` [I-D-21], the Ki is 100 to 1000 nM.

`CN(C)Cc1ccc(-c2cnc(N)c(-c3nc4cc(F)ccc4n3-c3cccc(Cl)c3F)c2)cc1` [I-D-22]: the Ki lay in the range of 100 to 1000 nM.

The compound `Nc1ncc(-c2ccc(N3CCNCC3)cc2)cc1-c1nc2cnccc2n1-c1cccc(F)c1F` [I-D-23] had a Ki of at most 100 nM.

On to `Nc1ncc(-c2cnn(C3CCNCC3)c2)cc1-n1nnnc1-c1cccc(F)c1F` [I-E-1], for which the Ki is 100 to 1000 nM.

In turn, `Nc1ncc(-c2cc3c(s2)CCNCC3)cc1-n1nnnc1-c1cccc(F)c1F` [I-E-2] registered a Ki of 100 to 1000 nM.

In turn, `Nc1ncc(-c2ccc(C3CCNCC3)cc2)cc1-n1nnnc1-c1cccc(F)c1F` [I-E-3] showed a Ki of 100 to 1000 nM.

`Nc1ncc(-c2ccc(CN3CCCC3)cc2)cc1-n1nnnc1-c1cccc(F)c1F` [I-E-4] yielded a Ki of 100 to 1000 nM.

In turn, `CC(=O)Nc1cccc(-c2cnc(N)c(-n3nnnc3-c3cccc(F)c3F)c2)c1` [I-E-5] registered a Ki of 100 to 1000 nM.
